Assay results taken from paper doi:10.1101/2024.08.19.608619, “Discovery of potent SARS-CoV-2 nsp3 macrodomain inhibitors uncovers lack of translation to cellular antiviral response” (bioRxiv, 2024).
Converted amounts (≈) assume the structure as drawn. Where two headings read alike, the source gives them in different places.

How the values were obtained:
[1] = Hepatic microsomal stability, HLM; assay type: in vitro ADME, human; conditions: In vitro human liver microsomal stability; for perc_remaining_no_cofactor: no cofactor
[2] = LogD; conditions: pH 7.4; In vitro LogD
[3] = Hepatic microsomal stability, MLM; assay type: in vitro ADME; conditions: In vitro mouse liver microsomal stability; for perc_remaining_no_cofactor: no cofactor
[4] = In vitro kinetic solubility; conditions: In vitro kinetic solubility, ph 7.4
[5] = test system: SARS-CoV-2, isolate USA-WA1/2020; assay: microbe, parasite or virus in culture; assay type: cell-based; conditions: HeLa-ACE2 SARS-CoV-2 antiviral effect without P-gp inhibitor; for perc_max_measured: maximum measured response of dose series; for perc_min_measured: minimum measured response of dose series; for EC50: read-out: ec50; for EC90: read-out: ec90
[6] = Permeability Papp (AB) MDR1/MDCKII; conditions: In vitro MDR1-MDCKII permeability; for papp_a_to_b_mean: A to B; for perc_recovery_a_to_b_mean: recovery A to B
[7] = test system: HeLa-ACE2 cells; conditions: for perc_max_measured: highest measured response of the dose series; for perc_min_measured: lowest measured response of the dose series
[8] = protocol HeLa-ACE2 cytotoxicity

SMILES | clint [1] [µL/min/mg] | perc_remaining [1] [%] | t_half [1] [min] | perc_remaining_no_cofactor [1] [%] | logd [2] | clint [3] [µL/min/mg] | perc_remaining [3] [%] | t_half [3] [min] | perc_remaining_no_cofactor [3] [%] | solubility_mean [4] [µM] | perc_max_measured [5] [%] | perc_min_measured [5] [%] | EC50 [5] [µM] | EC90 [5] [µM] | papp_a_to_b_mean ([6]; no inhibitor) [×10⁻⁶ cm/s] | perc_recovery_a_to_b_mean ([6]; no inhibitor) [%] | perc_max_measured ([7]; HeLa-ACE2 cytotoxicity) [%] | perc_min_measured ([7]; HeLa-ACE2 cytotoxicity) [%] | further results
Cc1nn(C)cc1-c1cc2c(N[C@H](c3ccc4c(c3)S(=O)(=O)CCC4)C(C)C)ncnc2[nH]1 (single isomer, unassigned) [ASAP-0011448] | 251.0 | 2.0 | 6.6 | 116.0 | 3.4 | 390.0 | 1.0 | 4.3 | 103.0 | 63 (≈ 29.3 µg/mL) | 131.643 | 93.649 | > 20 | > 20 | – | – | – | – | papp_a_to_b_mean ([6]; mean): 3.69 ×10⁻⁶ cm/s; perc_recovery_a_to_b_mean ([6]; mean): 77.9%; CC50 [7, 8]: > 20 µM; cc10 [7, 8]: > 20.0 µM; perc_max_measured [7, 8]: 94.816%; perc_min_measured [7, 8]: 77.647%
CCNC(=O)c1cc2c(N[C@H](c3ccc4c(c3)OCCO4)C(C)C)ncnc2[nH]1 (single isomer, unassigned) [ASAP-0013827] | 1329.0 | 1.0 | 1.3 | 97.0 | 3.6 | 72.0 | 29.0 | 23.2 | 92.0 | 13 (≈ 5.14 µg/mL) | 113.12 | 80.543 | > 20 | > 20 | 2.9 | 81.7 | 106.128 | 83.696 | –
CC(C)[C@H](Nc1ncnc2[nH]c(C(=O)N[C@H]3CCN(C)C3)cc12)c1ccc2c(c1)S(=O)(=O)CCC2 [ASAP-0012334] | 11.0 | 80.0 | 149.8 | 98.0 | 1.4 | 1.0 | 98.0 | 1540.5 | 97.0 | 396 (≈ 197 µg/mL) | – | – | – | – | 0.175 | 89.9 | – | – | –
CC(C)[C@H](Nc1ncnc2[nH]c(-c3cnn(CC(=O)N(C)C)c3)cc12)c1ccc2c(c1)S(=O)(=O)CCC2 [ASAP-0013744] | 92.0 | 22.0 | 18.1 | 97.0 | 2.2 | 124.0 | 13.0 | 13.5 | 98.0 | 361 (≈ 188 µg/mL) | – | – | – | – | 1.17 | 116.0 | – | – | –
CC(C)[C@@H](Nc1ncnc2[nH]c(-c3cnn(CC(=O)N(C)C)c3)cc12)c1ccc2c(c1)S(=O)(=O)CCC2 [ASAP-0013747] | 297.0 | 1.0 | 5.6 | 99.0 | 2.2 | 31.0 | 59.0 | 53.8 | 102.0 | 256 (≈ 134 µg/mL) | – | – | – | – | 0.555 | 78.8 | – | – | –
CCNC(=O)c1cc2c(N[C@H](c3ccc4c(c3)OCCO4)C(C)C)ncnc2[nH]1 [ASAP-0013824] | 67.0 | 32.0 | 24.8 | 100.0 | 3.6 | 48.0 | 47.0 | 34.6 | 94.0 | 263 (≈ 104 µg/mL) | 109.949 | 49.504 | 19.7 | > 20 | 2.7 | 94.3 | 99.37 | 90.423 | CC50 ([7]; HeLa-ACE2 cytotoxicity): > 20 µM; cc10 ([7]; HeLa-ACE2 cytotoxicity): > 20.0 µM
